In article PMC4199987 (Drug Design, Development and Therapy, 2014):
Read-outs that look alike come from different tables or passages of the source. Marks after values point to notes of the source that are not given here.

Legend:
[1] = test system: active GLP-1; test: Postprandial plasma active GLP-1 in healthy subjects; assay type: in vivo, human
[2] = test system: serum glucose; test: Postprandial serum glucose in healthy subjects; assay type: in vivo, human
[3] = test system: whole blood insulin; test: Postprandial whole blood insulin in healthy subjects; assay type: in vivo, human
[4] = Safety and tolerability assessment; assay type: in vivo, human
[5] = test system: human DPP-VIII; conditions: selectivity; cited from earlier work
[6] = test system: human DPP-IX; conditions: selectivity; cited from earlier work
[7] = test system: human DPP-I; conditions: selectivity; cited from earlier work
[8] = test system: human DPP-II; conditions: selectivity; cited from earlier work
[9] = test system: fibroblast activation protein-alpha (FAPα); conditions: selectivity; cited from earlier work
[10] = test system: antiphagocytic protein 1 (APP1); conditions: selectivity; cited from earlier work
[11] = test system: prolidase; conditions: selectivity; cited from earlier work
[12] = test system: granzyme B; conditions: selectivity; cited from earlier work
[13] = test system: cytochrome P450 (CYP) 3A4; conditions: in vitro studies; cited from earlier work
[14] = test system: CYP1A2; conditions: in vitro studies; cited from earlier work
[15] = test system: CYP2C9; conditions: in vitro studies; cited from earlier work
[16] = test system: CYP2C19; conditions: in vitro studies; cited from earlier work
[17] = test system: CYP2D6; conditions: in vitro studies; cited from earlier work
[18] = test system: CYP3A4; conditions: in vitro studies; cited from earlier work
[19] = test system: CYP3A4; conditions: in vitro studies; cited from earlier work; remark: listed apart in the source
[20] = dose range 1.25–60 mg, healthy volunteers; cited from earlier work
[21] = test system: high fat diet-fed mice; conditions: cited from earlier work
[22] = test system: db/db mice; conditions: young leptin receptor-deficient db/db mice; cited from earlier work
[23] = test system: streptozotocin-induced diabetic mice; conditions: cited from earlier work
[24] = cited from earlier work
[25] = baseline corrected, day 1, 5 mg
[26] = baseline corrected, day 1, 10 mg
[27] = baseline corrected, day 1, 20 mg
[28] = baseline corrected, day 10, 5 mg
[29] = baseline corrected, day 10, 10 mg
[30] = baseline corrected, day 10, 20 mg
[31] = baseline uncorrected, day 1, 5 mg
[32] = baseline uncorrected, day 1, 10 mg
[33] = baseline uncorrected, day 1, 20 mg
[34] = baseline uncorrected, day 10, 5 mg
[35] = baseline uncorrected, day 10, 10 mg
[36] = baseline uncorrected, day 10, 20 mg
[37] = 5 mg (N=8), judged to be related to the study drug
[38] = 5 mg once daily for 10 days (N=8)
[39] = 10 mg (N=8), judged to be related to the study drug
[40] = 10 mg once daily for 10 days (N=8)
[41] = 20 mg (N=8), judged to be related to the study drug
[42] = 20 mg once daily for 10 days (N=8)

CC(C)(C)OC[C@@H]1C(=O)NCCN1C(=O)C[C@H](N)Cc1cc(F)c(F)cc1F [Evogliptin]
Average AUEtotal (CV%) GLP-1 [1, 25]: 25.7 (48.3) pM·h
Average AUEtotal (CV%) GLP-1 [1, 26]: 24.9 (46.0) pM·h
Average AUEtotal (CV%) GLP-1 [1, 27]: 45.3 (73.8) pM·h
Average AUEtotal (CV%) GLP-1 [1, 28]: 25.4 (56.7) pM·h
Average AUEtotal (CV%) GLP-1 [1, 29]: 22.2 (41.0) pM·h
Average AUEtotal (CV%) GLP-1 [1, 30]: 35.5 (67.3) pM·h
Average AUEtotal (CV%) GLP-1 [1, 31]: 55.8 (49.6) pM·h
Average AUEtotal (CV%) GLP-1 [1, 32]: 55.0 (35.9) pM·h
Average AUEtotal (CV%) GLP-1 [1, 33]: 82.8 (55.3) pM·h
Average AUEtotal (CV%) GLP-1 [1, 34]: 75.7 (111.2) pM·h
Average AUEtotal (CV%) GLP-1 [1, 35]: 52.6 (25.0) pM·h
Average AUEtotal (CV%) GLP-1 [1, 36]: 72.8 (37.0) pM·h
reduction of baseline corrected AUEtotal of glucose compared to placebo ([2]; 5 mg): 20%
reduction of baseline corrected AUEtotal of glucose compared to placebo ([2]; 10 mg): 25%
reduction of baseline corrected AUEtotal of glucose compared to placebo ([2]; 20 mg): 35%
effect on fasting glucose levels ([2]; 5-20 mg): did not affect the fasting glucose levels
Average AUEtotal (CV%) Glucose [2, 25]: 264.1 (36.1) h·mg/dL
Average AUEtotal (CV%) Glucose [2, 26]: 234.9 (24.9) h·mg/dL
Average AUEtotal (CV%) Glucose [2, 27]: 229.7 (37.6) h·mg/dL
Average AUEtotal (CV%) Glucose [2, 28]: 259.4 (25.2) h·mg/dL
Average AUEtotal (CV%) Glucose [2, 29]: 242.8 (41.6) h·mg/dL
Average AUEtotal (CV%) Glucose [2, 30]: 209.3 (31.0) h·mg/dL
Average AUEtotal (CV%) Glucose [2, 31]: 741.3 (14.1) h·mg/dL
Average AUEtotal (CV%) Glucose [2, 32]: 747.3 (6.0) h·mg/dL
Average AUEtotal (CV%) Glucose [2, 33]: 747.8 (11.9) h·mg/dL
Average AUEtotal (CV%) Glucose [2, 34]: 759.6 (9.1) h·mg/dL
Average AUEtotal (CV%) Glucose [2, 35]: 751.4 (12.6) h·mg/dL
Average AUEtotal (CV%) Glucose [2, 36]: 727.0 (7.2) h·mg/dL
Average AUEtotal (CV%) Insulin [3, 25]: 238.3 (15.0) h·μIU/mL
Average AUEtotal (CV%) Insulin [3, 26]: 315.1 (35.7) h·μIU/mL
Average AUEtotal (CV%) Insulin [3, 27]: 223.3 (50.8) h·μIU/mL
Average AUEtotal (CV%) Insulin [3, 28]: 270.9 (36.0) h·μIU/mL
Average AUEtotal (CV%) Insulin [3, 29]: 410.2 (62.6) h·μIU/mL
Average AUEtotal (CV%) Insulin [3, 30]: 301.3 (28.6) h·μIU/mL
Average AUEtotal (CV%) Insulin [3, 31]: 274.9 (14.2) h·μIU/mL
Average AUEtotal (CV%) Insulin [3, 32]: 360.2 (30.6) h·μIU/mL
Average AUEtotal (CV%) Insulin [3, 33]: 264.7 (44.0) h·μIU/mL
Average AUEtotal (CV%) Insulin [3, 34]: 311.3 (32.0) h·μIU/mL
Average AUEtotal (CV%) Insulin [3, 35]: 460.3 (57.2) h·μIU/mL
Average AUEtotal (CV%) Insulin [3, 36]: 349.5 (24.7) h·μIU/mL
Cough, number of cases ([4]; 5 mg (N=8)): 1
Epigastric discomfort, number of cases ([4]; 5 mg (N=8)): 1
Eyeball pain, number of cases ([4]; 5 mg (N=8)): 1
Poor-quality sleep, number of cases ([4]; 5 mg (N=8)): 1
Rhinorrhea, number of cases ([4]; 5 mg (N=8)): 1
Sweating, number of cases ([4]; 5 mg (N=8)): 1
Throat irritation, number of cases ([4]; 5 mg (N=8)): 1
Vasovagal syncope, number of cases ([4]; 5 mg (N=8)): 1
Fatigue, number of cases [4, 37]: 1 ^a
Insomnia, number of cases [4, 37]: 1 ^a
% of subjects with AEs in a group [4, 38]: 50%
AEs, number of cases [4, 38]: 10
Musculoskeletal discomfort, number of cases ([4]; 10 mg (N=8)): 1
Pharyngitis, number of cases ([4]; 10 mg (N=8)): 1
Epigastric discomfort, number of cases [4, 39]: 1 ^a
Sweating, number of cases [4, 39]: 1 ^a
% of subjects with AEs in a group [4, 40]: 50%
AEs, number of cases [4, 40]: 5
Joint pain, number of cases ([4]; 20 mg (N=8)): 1
Prurigo, number of cases ([4]; 20 mg (N=8)): 1
Headache, number of cases [4, 41]: 1 ^a
Increased urinary frequency, number of cases [4, 41]: 1 ^a
% of subjects with AEs in a group [4, 42]: 37.5%
AEs, number of cases [4, 42]: 4
Serious AEs ([4]; 5-20 mg once daily for 10 days): No serious AEs were reported
Severity of AEs ([4]; 5-20 mg once daily for 10 days): all AEs were mild in severity
AEs, number of cases in subjects administered evogliptin ([4]; all evogliptin dose groups, 5-20 mg for 10 days): 19 cases
Subjects with AEs among those administered evogliptin ([4]; all evogliptin dose groups, eleven subjects): 45.8%
Tolerability of repeated administration ([4]; healthy subjects, 5–20 mg dose range): well tolerated
potency for DPP-IV compared to human DPP-VIII [5]: 6,000 times
potency for DPP-IV compared to human DPP-IX [6]: 6,000 times
potency for DPP-IV compared to human DPP-I [7]: more than 20,000 times
potency for DPP-IV compared to human DPP-II [8]: more than 20,000 times
potency for DPP-IV compared to FAPα [9]: more than 20,000 times
potency for DPP-IV compared to APP1 [10]: more than 20,000 times
potency for DPP-IV compared to prolidase [11]: more than 20,000 times
potency for DPP-IV compared to granzyme B [12]: more than 20,000 times
induction of CYP3A4 [13]: not an inducer
inhibition of CYP1A2 [14]: nor an inhibitor
inhibition of CYP2C9 [15]: nor an inhibitor
inhibition of CYP2C19 [16]: nor an inhibitor
inhibition of CYP2D6 [17]: nor an inhibitor
inhibition of CYP3A4 [18]: nor an inhibitor
enzyme mediating metabolism [19]: primarily mediated by CYP3A4
dose proportionality of PKs after single dose [20]: dose-proportional PKs
tolerability after single dose [20]: good tolerability
effect on insulin sensitivity [21]: improved insulin sensitivity
effect on onset of diabetes [22]: delayed the onset of diabetes
effect on β-cell replication and neogenesis [23]: increased β-cell replication and neogenesis
interindividual variability (CV%) of AUCτ,ss (5-20 mg): < 20%
interindividual variability (CV%) of Cmax,ss (5-20 mg): < 30%
time to attain steady state (all dosage groups, once daily): ≤ 3 days
fess (fraction of the administered drug excreted into the urine at the steady state) (day 10, 5 mg once daily, mean ± SD): 0.34±0.08
fess (fraction of the administered drug excreted into the urine at the steady state) (day 10, 10 mg once daily, mean ± SD): 0.27±0.12
fess (fraction of the administered drug excreted into the urine at the steady state) (day 10, 20 mg once daily, mean ± SD): 0.27±0.04
CLss/F (day 10, steady state, 5 mg once daily, mean ± SD): 49.4 ± 9.6 L/h
CLss/F (day 10, steady state, 10 mg once daily, mean ± SD): 63.4 ± 10.7 L/h
CLss/F (day 10, steady state, 20 mg once daily, mean ± SD): 54.3 ± 8.6 L/h
Tmax (human, in vivo): 4 to 5 h
AUC(0-t) (human, in vivo, 5 mg): 0.073 ± 0.0153 µg·h/mL
Cmax (human, in vivo, 5 mg, Cmax, day 1, 5 mg, mean ± SD): 4.9 ± 1.8 ng/mL
Cmax (human, in vivo, 5 mg, Cmax,ss, day 10, steady state, 5 mg once daily, mean ± SD): 6.7 ± 1.9 ng/mL
half-life (human, in vivo, 5 mg, t1/2,ss, day 10, steady state, 5 mg once daily, mean ± SD): 32.9 ± 6.1 h
AUC(0-t) (human, in vivo, 10 mg): 0.118 ± 0.0242 µg·h/mL
Cmax (human, in vivo, 10 mg, Cmax, day 1, 10 mg, mean ± SD): 9.5 ± 2.1 ng/mL
AUC(0-t) (human, in vivo, 20 mg): 0.254 ± 0.044 µg·h/mL
Cmax (human, in vivo, 20 mg, Cmax, day 1, 20 mg, mean ± SD): 21.7 ± 3.7 ng/mL
Tmax (human, in vivo, po, 5 mg): 5.1 h
Tmax (human, in vivo, po, 10 mg): 5 h
Tmax (human, in vivo, po, 20 mg): 4.5 h
dose linearity of PKs (within the 5–20 mg dose range, repeated administration): linear PKs

CC#CCn1c(N2CCC[C@@H](N)C2)nc2c1c(=O)n(Cc1nc(C)c3ccccc3n1)c(=O)n2C [linagliptin]
terminal elimination half-life [24]: 120 h
